In series [1] the test system is Scurfy mice. The protocol: (§1) Scurfy phenotype was obtained by backcrossing on B6. 129S7-Rag1tm1Mom/J background, allowing generation of homozygous XSf/XSfRag1−/− female. Crossing of these females with WT C57BL/6J mice result in the birth only of diseased XSf/Y.Rag1−/+male.
(§2) First, scurfy mice were treated with an immunosuppressor: Temsirolimus (LC laboratories, Woburn, USA) was injected S.C at the dose of 2 mg/kg at day 8 and day 10 after birth. This treatment was continued twice a week in some experiment. Anti-CD3 Fab'2 (clone 145-2C11, BioXCell, West Lebanon, USA) was injected S.C at 20 μg/day during 5 days at day 8 after birth. Cyclophosphamide (European Pharmacopoeia (EP) Reference Standard, Merck KGaA, Darmstadt, Germany) was injected I.P. at 50, 100, or 150 mg/kg 10 days after birth. At day 10 or day 14, CD4^+CD25^+CD45.1^+cells (containing putative Tregs) or engineered CD4^+T cells (Foxp3.LNGFR or LNGFR) from Scurfy mice were injected at 0.5×10^6, 0.75×10^6 or 1×10^6 of cells respectively via I.P injections. […] In indicated experiments, together with cells, Proleukin (human IL-2, aldesleukine, Novartis) was injected at 1.000 UI/g via I.P and during 5 days then once a week.
(§3) As shown in FIGS. 1-7, the inventors compared 7 different experimental protocols to identify the one allowing to test the efficacy of Treg to treat Scurfy autoimmune syndrome. Tregs were sorted on the basis of CD4 and CD25 expression from CD45.1 congenic B6 mice and injected at a dose of 5×10^5 intra-peritoneally at day 10 or 14. The criteria was the scurfy score measured every 3 to 4 days from birth and when signs of efficiency evidenced improved scores for mice transplanted with Tregs, survival was followed. Three drugs were tested as conditioning regimens: Temsirolimus, subcutaneously injected at a dose of 2 mg/kg daily from day 4 to day 28 or from day 4 to day 9 (post-birth), anti-CD3 Fab'2, subcutaneously injected at a dose of 20 micrograms/recipient, daily from day 8 to day 12, Cyclophosphamide at 3 different doses (50, 100 and 150 mg/kg) injected at day 10.

Series [2] relates to Scurfy mice. The series can be described thus: Survival of Scurfy mice. Type of series: in vivo. The method, then:
as §1, §2
Values are represented as means ±SD, unless stated otherwise. GraphPad Prism 6.0 was used for all statistical analyses. P value was calculated with a confidence interval of 95% to indicate the statistical significance between groups. Statistical test included non-parametric Mann-Whitney test, Fischer exact test or two ways ANOVA depending on the dataset. A P value <0.05 was considered statistically significant. Statistically significant differences between groups are noted in figures with asterisks (*p<0.05, **p<0.01, ***p<0.001, ****p<0.0001). Correlations were performed with a non-parametric Spearman correlation. Survival was analyzed with Log-rank test (Mantel-Cox).
as §3

For another series, the system named is CD4+ T cells. The series can be described thus: T cell depletion after immunosuppressive drug. On the set-up: species or system mice. The settings on record: mouse, in vivo. The method, then:
as §2

Series [3] has as its system Scurfy mice. The protocol:
as §2, §3
This is another data set of the same source.

The mark [4] stands for this setting: first series, Cy 50 mg/kg conditioned Scurfy mice.

Like-named read-outs stand apart in the source and are kept apart here.

Take `CO[C@H]1C[C@@H]2CC[C@@H](C)[C@@](O)(O2)C(=O)C(=O)N2CCCC[C@H]2C(=O)O[C@H]([C@H](C)C[C@@H]2CC[C@@H](OC(=O)C(C)(CO)CO)[C@H](OC)C2)CC(=O)[C@H](C)/C=C(\C)[C@@H](O)[C@@H](OC)C(=O)[C@H](C)C[C@H](C)/C=C/C=C/C=C/1C` [Temsirolimus]: in the series with Scurfy mice [1] (Temsirolimus twice a week starting at disease onset (day 8), drug alone), the scurfy score entry is “reduction of Scurfy score”. Moreover, the “improvement of Scurfy score after the infusion of Tregs” value in the series with Scurfy mice [1] (drug used as conditioning regimen, 5×10^5 Tregs i.p. at day 10 or 14) is listed as “did not allow to reveal any improvement”. Also, the life expectancy result with Scurfy mice [2] (Temsirolimus twice a week starting at day 8) is “doubling of life expectancy”.

For the molecule “IL-2: Proleukin (human IL-2, aldesleukine, Novartis)”, the “effect on auto-immunity in Scurfy settings” value with Scurfy mice [1] (low dose IL-2, 1.000 UI/g) is “did not worsen auto-immunity”. Also, the mean survival in the series with Scurfy mice [2] (setting [4]) was 51 days.

As to `O.O=P1(N(CCCl)CCCl)NCCCO1` (centres unmarked) [Cyclophosphamide, 2-[bis(2-chloroethyl)amino]-tetrahydro-2H-1,3,2-oxazaphosphorine-2-oxide monohydrate], in the series with CD4+ T cells, the “CD4 T cells nadir (time after injection)” value was 4 days, the “T cells depletion across doses” value is listed as “not different with the three doses” and the “cell count normalized (time after injection)” value stood at 10 days. In addition, the scurfy score result in the series with Scurfy mice [1] (mouse, in vivo) was “more stable scurfy score”. Further, in the series with Scurfy mice [3] (50 mg/kg at day 10), the general toxicity entry is listed as “absent”. For the same molecule, the “general toxicity revealed by the health status of the mice” value in the series with Scurfy mice [3] (100 and 150 mg/kg at day 10) is on record as “general toxicity”. Also, in the series with Scurfy mice [3] (Cy 50, 100 or 150 at day 10, correlated with dose), the toxicity observed result was “growth retardation and a transient alopecia”. In addition, the “toxicities in young animals” value with Scurfy mice [3] (even low dose of Cy) is “alopecia and growth retardation”. Moreover, the “delay of the death of scurfy mice” value in the series on Scurfy mice [2] (cyclophosphamide at all doses (50, 100 and 150 mg/kg) at day 10, no cells) is “more than 60 days”. The molecule further had a mean survival with Scurfy mice [2] (setting [4]) of 39 days. The “survival following Cy injection” value with Scurfy mice [2] (increased from 30 (untreated mice) to 90 days, p=0.01) stood at 90 days. In the series with Scurfy mice [2] (second series, 90 days of follow-up), this molecule returned a mean survival of 47 days.

For the origin of these results see US20220168394A1, “METHODS OF INDUCING OR RESTORING IMMUNE TOLERANCE” (INSERM (Institut National de la Santé et de la Recherche …, priority 2019, published 2022).
